According to ChEMBL document CHEMBL1201862, “PubChem BioAssay data set” (2004):
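96-well plates; 48 h exposure; 5 concentrations. Endpoints by linear interpolation between flanking doses. Not reached: highest tested concentration assigned. At the GI50, growth is halved.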 Active and inactive are the calls of the source. No stated cut-off is given here; in the data, active = GI50 up to about 1.1 µM and inactive = higher.

How the values were obtained:
Experiment in all cases: NCI-60 cell line screen, 48 h
LXFL 529 = test system: LXFL 529
SNB-78 = test system: SNB-78
M19-MEL = test system: M19-MEL
DLD-1 = test system: DLD-1
DMS-273 = test system: DMS-273
XF498 = test system: XF498
DMS-114 = test system: DMS-114
HOP-18 = test system: HOP-18
RXF 631 = test system: RXF 631

Row | SMILES | GI50 (LXFL 529) | GI50 (SNB-78) | GI50 (M19-MEL) | GI50 (DLD-1) | GI50 (DMS-273) | GI50 (XF498) | GI50 (DMS-114) | GI50 (HOP-18) | GI50 (RXF 631)
1 | CN(C)/C(=N\C#N)NCc1ccccc1 | > 100 µM (inactive) | > 100 µM (inactive) | > 100 µM (inactive) | > 100 µM (inactive) | > 100 µM (inactive) | – | – | – | –
2 | COc1ccc([Se]c2ccc(OC)cc2)cc1 | – | – | 69.7 µM (inactive) | > 100 µM (inactive) | 92.5 µM (inactive) | > 100 µM (inactive) | 29.1 µM (inactive) | 27.9 µM (inactive) | –
3 | c1ccc2c(c1)SP1Sc3ccccc3P21 (centres undefined) | – | > 100 µM (inactive) | > 100 µM (inactive) | > 92.5 µM (inactive) | > 100 µM (inactive) | > 100 µM (inactive) | > 79.3 µM (inactive) | 18.1 µM (inactive) | –
4 | O=C(O)c1ccccc1NC(=O)C1CCCCC1 | > 100 µM (inactive) | > 100 µM (inactive) | > 100 µM (inactive) | > 100 µM (inactive) | > 100 µM (inactive) | > 100 µM (inactive) | > 100 µM (inactive) | – | > 100 µM (inactive)
5 | COc1cccc2c1C(=O)c1c(O)c3c(c(O)c1C2=O)C[C@@](O)(C(C)=O)C[C@@H]3OC1CC(N(C)C)C(O)C(C)O1 (some centres undefined) | 0.00684 µM (active) | 0.00873 µM (active) | 0.0213 µM (active) | 0.0153 µM (active) | 0.00964 µM (active) | 0.0001 µM (active) | 0.0475 µM (active) | 0.0859 µM (active) | –
6 | COc1ccc2cc(C(=O)c3ccccc3C(=O)O)ccc2c1 | > 100 µM (inactive) | – | > 100 µM (inactive) | > 100 µM (inactive) | > 100 µM (inactive) | – | > 100 µM (inactive) | > 100 µM (inactive) | –
7 | Cn1ccnc1CCc1ccc(Cl)c(Cl)c1 | > 100 µM (inactive) | > 100 µM (inactive) | > 100 µM (inactive) | > 100 µM (inactive) | > 100 µM (inactive) | – | 67.5 µM (inactive) | 47.1 µM (inactive) | –
8 | CCN(CC)CCSc1c2ccccc2nc2cc(NCC(=O)Nc3ccccc3-c3ccccc3NC(=O)CNc3ccc4c(SCCN(CC)CC)c5ccccc5nc4c3)ccc12 | > 91 µM (inactive) | – | 23 µM (inactive) | > 100 µM (inactive) | > 34.7 µM (inactive) | > 100 µM (inactive) | – | > 100 µM (inactive) | > 100 µM (inactive)
9 | N#CCCN(CCC#N)c1ccc(C(=O)NN)cc1 | > 100 µM (inactive) | > 100 µM (inactive) | > 100 µM (inactive) | > 100 µM (inactive) | > 100 µM (inactive) | > 100 µM (inactive) | > 100 µM (inactive) | > 100 µM (inactive) | > 100 µM (inactive)
10 | CC(C)(C)N1CC1CNC(=O)C(=O)NCC1CN1C(C)(C)C (centres undefined) | – | – | 1.26 µM (inactive) | 0.556 µM (active) | – | 0.526 µM (active) | 0.603 µM (active) | 1.07 µM (active) | –
11 | CN[C@@H](C)[C@H](NC)c1ccccc1 | > 100 µM (inactive) | > 100 µM (inactive) | > 100 µM (inactive) | > 100 µM (inactive) | > 100 µM (inactive) | – | > 100 µM (inactive) | > 100 µM (inactive) | > 100 µM (inactive)
12 | CCCCCCCCCCCCCCCCCC(=O)Nc1ccn(C2OC(CO)C(O)C2O)c(=O)n1 (centres undefined) | > 100 µM (inactive) | > 100 µM (inactive) | 5.69 µM (inactive) | > 100 µM (inactive) | 14.3 µM (inactive) | – | – | > 100 µM (inactive) | –
13 | COC(=O)C(C(=O)C(=O)Nc1c(C)cccc1C)c1cnc2ccccc2n1 (centres undefined) | > 100 µM (inactive) | > 100 µM (inactive) | – | – | > 100 µM (inactive) | > 100 µM (inactive) | > 100 µM (inactive) | > 100 µM (inactive) | > 100 µM (inactive)
14 | CCCCCCCCCCCC(=O)OC(COC(N)=O)COc1ccc(Cl)cc1 (centres undefined) | 20.8 µM (inactive) | 24.3 µM (inactive) | 18.6 µM (inactive) | 38 µM (inactive) | 20.9 µM (inactive) | 21.4 µM (inactive) | 17.3 µM (inactive) | 11.3 µM (inactive) | 26.2 µM (inactive)
15 | CCCCn1/c(=N/C(=S)N(C)C)ss/c1=N\C(=S)N(C)C | > 100 µM (inactive) | > 100 µM (inactive) | > 100 µM (inactive) | > 100 µM (inactive) | > 100 µM (inactive) | > 100 µM (inactive) | – | > 100 µM (inactive) | –
16 | CN(C)c1ccc2c(=O)c3ccccc3oc2n1 | 84.3 µM (inactive) | > 100 µM (inactive) | > 100 µM (inactive) | 73.5 µM (inactive) | > 100 µM (inactive) | > 100 µM (inactive) | 82.2 µM (inactive) | – | > 100 µM (inactive)
17 | O=C(CCC1C(=O)NC(=S)NC1=O)c1ccc2ccccc2c1 | > 100 µM (inactive) | > 100 µM (inactive) | > 100 µM (inactive) | > 100 µM (inactive) | > 100 µM (inactive) | – | > 100 µM (inactive) | > 100 µM (inactive) | –
18 | CC(=O)NC1C(=O)CC(c2ccccc2)N(C)C1c1ccccc1 (centres undefined) | > 100 µM (inactive) | > 100 µM (inactive) | > 100 µM (inactive) | > 100 µM (inactive) | > 100 µM (inactive) | – | > 100 µM (inactive) | – | > 100 µM (inactive)
19 | CC12CCC3(C1)[C@H](CC2=O)C[C@@H](OC(=O)c1ccccc1)C1C(C)(CO)CCC[C@@]13C (some centres undefined) | 0.6 µM (active) | 34 µM (inactive) | 3.4 µM (inactive) | 2.48 µM (inactive) | 0.625 µM (active) | – | 0.156 µM (active) | 26.7 µM (inactive) | –
20 | COc1ccc(NC(=O)C(=O)Cc2nc3ccc([N+](=O)[O-])cc3nc2O)c(OC)c1 | > 100 µM (inactive) | – | > 100 µM (inactive) | > 100 µM (inactive) | > 100 µM (inactive) | – | > 100 µM (inactive) | 56.1 µM (inactive) | –
21 | COc1cc([C@@H]2c3cc4c(c(O)c3C[C@H]3COC(=O)[C@@H]32)OCO4)cc(OC)c1OC [BETA-PELTATIN A] | – | 0.015 µM (active) | 0.0548 µM (active) | 0.015 µM (active) | 0.015 µM (active) | 0.015 µM (active) | 0.015 µM (active) | 1.26 µM (inactive) | –
22 | Nc1ccc2c(c1)CN1C(=O)c3ccccc3C1=N2 [DANIQUIDONE] | 82.8 µM (inactive) | 25 µM (inactive) | > 116 µM (inactive) | 51.1 µM (inactive) | 32.4 µM (inactive) | – | 70.5 µM (inactive) | 108 µM (inactive) | –
